Data set [1] relates to P-1798 solid lymphosarcoma. Description: single dose chemotherapeutic efficacy, intradermal P-1798 solid lymphosarcoma. In kind it is in vivo, mice. Particulars: 20 mg/kg single dose. The protocol:
In the first investigation, groups of 10 mice received free daunorubicin or daunorubicin-vesicles in 20 mg/kg single doses at three or four days following tumor implantation. Tumors were measured using calipers and the survival over time of treated and control mice was recorded. Controls consisted of injections of a 5% dextrose in water solution at 2 ml/20 gm doses.
Representative results of these investigations are shown in FIG. 5 for treatment commencing on day 3 after tumor implantation. Typically, with tumor metastasis, mice with tumors die within 14-17 days. […] The median life span of mice injected with daunorubicin-vesicles was 21 days.

For a further data set, the target named is DNA. Particulars: binding to DNA; read-out: affinity for binding to DNA in a cell (converted); cited from earlier work.
Data set [2] is described as follows: toxicity determined by survival in tumor-bearing mice. In kind it is in vivo.
For data set [3] the following is noted: binding to distearoyl phosphatidylglycerol; read-out: binding constant; cited from earlier work.
For data set [4] the following is noted: children highly susceptible (Mosijezuk et al.); cited from earlier work.

Regarding `COc1cccc2c1C(=O)c1c(O)c3c(c(O)c1C2=O)C[C@@](O)(C(C)=O)C[C@@H]3O[C@H]1C[C@H](N)[C@H](O)[C@H](C)O1` [daunorubicin], the “inhibition of tumor growth vs untreated controls” value in data set [1] is reported as “significant inhibition of tumor growth”. Also, the figures for the Kd (on DNA; in data set [3]) were about 0.5 µM and about 10 µM, respectively. For the same compound, the “toxicity induced deaths by dose” value in data set [2] (10, 20 and 30 mg/kg) was “toxicity induced deaths occurred only for the high dose unencapsulated daunorubicin (30 mg/kg)”. Moreover, the mortality in data set [2] (mouse, in vivo, 30 mg/kg, read-out: toxicity induced deaths) came to 100%.
As for `COc1cccc2c1C(=O)c1c(O)c3c(c(O)c1C2=O)C[C@@](O)(C(=O)CO)C[C@@H]3O[C@H]1C[C@H](N)[C@H](O)[C@H](C)O1` [doxorubicin], the cardiotoxicity entry in data set [4] was “congestive heart failure”.
